Key:
[1] = molecular target: T1, ATP-dependent translocase ABCB1 (Homo sapiens, UniProt P08183); assay: TP_TRANSPORTER: inhibition of JC-1 uptake (JC-1: ca 0.1 uM, S9788: 5 uM) in K562 and K562/ADR cells, flow cytometry; type: functional, cell-based
[2] = molecular target: T1, ATP-dependent translocase ABCB1; assay: TP_TRANSPORTER: spectrofluorimetric analysis (intracellular accumulation) in K562 and K562/ADR cells; type: functional, cell-based

T1 sequence (P08183 whole entry): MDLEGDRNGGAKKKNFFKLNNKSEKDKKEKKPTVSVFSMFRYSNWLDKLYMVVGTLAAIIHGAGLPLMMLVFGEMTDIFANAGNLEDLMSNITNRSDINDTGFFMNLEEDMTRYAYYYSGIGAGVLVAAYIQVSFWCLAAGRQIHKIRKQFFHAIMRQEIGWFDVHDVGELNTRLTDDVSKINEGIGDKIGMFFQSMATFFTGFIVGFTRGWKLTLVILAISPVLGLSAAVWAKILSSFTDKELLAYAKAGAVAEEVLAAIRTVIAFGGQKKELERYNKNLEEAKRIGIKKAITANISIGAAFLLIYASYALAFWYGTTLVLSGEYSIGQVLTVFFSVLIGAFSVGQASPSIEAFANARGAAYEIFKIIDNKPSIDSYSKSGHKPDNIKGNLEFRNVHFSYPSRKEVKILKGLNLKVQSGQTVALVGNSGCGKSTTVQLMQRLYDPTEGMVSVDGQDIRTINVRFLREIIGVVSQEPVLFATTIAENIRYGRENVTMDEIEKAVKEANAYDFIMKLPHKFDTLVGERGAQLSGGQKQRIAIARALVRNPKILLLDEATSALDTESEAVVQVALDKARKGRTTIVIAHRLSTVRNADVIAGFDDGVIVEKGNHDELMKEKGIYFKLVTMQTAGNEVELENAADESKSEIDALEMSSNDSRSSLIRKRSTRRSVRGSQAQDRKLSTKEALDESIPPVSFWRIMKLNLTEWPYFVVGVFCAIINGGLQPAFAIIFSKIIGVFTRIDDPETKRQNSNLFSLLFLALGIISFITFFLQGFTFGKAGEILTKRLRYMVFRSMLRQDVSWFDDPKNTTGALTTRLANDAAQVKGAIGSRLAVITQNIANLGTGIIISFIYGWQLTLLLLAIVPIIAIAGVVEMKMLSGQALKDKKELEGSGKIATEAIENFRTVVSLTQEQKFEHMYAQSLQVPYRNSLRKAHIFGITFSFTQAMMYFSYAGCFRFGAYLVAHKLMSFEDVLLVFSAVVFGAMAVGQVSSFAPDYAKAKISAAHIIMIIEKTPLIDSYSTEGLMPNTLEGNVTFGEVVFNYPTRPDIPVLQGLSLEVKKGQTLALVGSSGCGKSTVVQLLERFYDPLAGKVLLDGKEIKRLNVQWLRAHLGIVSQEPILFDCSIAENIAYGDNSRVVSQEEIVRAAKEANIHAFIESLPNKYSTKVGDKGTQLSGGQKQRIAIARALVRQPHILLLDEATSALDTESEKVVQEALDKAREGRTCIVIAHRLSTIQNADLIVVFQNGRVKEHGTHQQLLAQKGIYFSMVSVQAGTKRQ

| Activity [1] | Activity [2] | Structure (SMILES) |
| --- | --- | --- |
| inhibitor [+] |  | C=CCNc1nc(NCC=C)nc(N2CCC(NCC(c3ccc(F)cc3)c3ccc(F)cc3)CC2)n1 |
|  | substrate [+] | CCN1C(=C/C=C/c2n(CC)c3cc(Cl)c(Cl)cc3[n+]2CC)N(CC)c2cc(Cl)c(Cl)cc21.[I-] |

From ChEMBL document CHEMBL2074075, “Functional assay of multidrug resistant cells using JC-1, a carbocyanine fluorescent probe” (Leukemia, 1997)
